Read-outs that look alike come from different tables or passages of the source.
Assays:
TRPC6 [1] = target: T1, TRPC6 (Homo sapiens, UniProt Q9Y210); parameters: method as in earlier work; settings: 100 µM SKF-96365; ref 12 (Boulay et al.); cited from earlier work
T1 construct: expressed in transfected cells
T1 sequence (Q9Y210 1-931): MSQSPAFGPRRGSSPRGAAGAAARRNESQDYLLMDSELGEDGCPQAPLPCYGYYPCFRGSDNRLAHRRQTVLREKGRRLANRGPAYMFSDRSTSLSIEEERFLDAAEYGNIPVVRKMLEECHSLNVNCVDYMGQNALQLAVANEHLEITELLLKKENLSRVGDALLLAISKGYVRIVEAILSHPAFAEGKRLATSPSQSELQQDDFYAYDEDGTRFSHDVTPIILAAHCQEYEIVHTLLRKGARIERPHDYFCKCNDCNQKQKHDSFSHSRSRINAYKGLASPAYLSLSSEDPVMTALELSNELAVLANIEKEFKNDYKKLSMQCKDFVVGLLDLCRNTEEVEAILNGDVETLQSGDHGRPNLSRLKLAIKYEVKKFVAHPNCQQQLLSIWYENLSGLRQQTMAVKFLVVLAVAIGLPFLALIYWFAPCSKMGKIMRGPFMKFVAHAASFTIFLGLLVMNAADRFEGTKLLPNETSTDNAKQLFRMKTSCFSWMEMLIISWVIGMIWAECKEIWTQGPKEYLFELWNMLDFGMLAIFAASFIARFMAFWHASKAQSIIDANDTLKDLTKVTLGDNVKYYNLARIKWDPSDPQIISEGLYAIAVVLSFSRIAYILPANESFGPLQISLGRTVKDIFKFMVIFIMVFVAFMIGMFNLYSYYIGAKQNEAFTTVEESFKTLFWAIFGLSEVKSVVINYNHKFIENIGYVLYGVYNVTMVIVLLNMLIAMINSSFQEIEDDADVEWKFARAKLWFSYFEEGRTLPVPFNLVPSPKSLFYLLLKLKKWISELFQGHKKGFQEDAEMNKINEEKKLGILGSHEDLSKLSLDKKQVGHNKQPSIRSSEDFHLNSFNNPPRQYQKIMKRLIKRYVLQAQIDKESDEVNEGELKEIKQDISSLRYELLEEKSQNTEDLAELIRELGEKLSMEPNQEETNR

[2] = target: receptor-mediated calcium entry; parameters: method as in PMID 2173565; settings: platelets, neutrophils and endothelial cells; read-out: IC50, block of ADP-induced calcium entry; cited from earlier work
TRPC3 [3] = system: TRPC3; parameters: method as in PMID 12700192; settings: 100 µM; human myometrial cells; cited from earlier work
TRPC6 [4] = target: T1, TRPC6; assay: FLIPR calcium entry in TRPC6-expressing cells stimulated by hyperforin; assay type: cell-based; settings: read-out: IC50, hyperforin-induced TRPC6-mediated calcium entry (Fig. 3)
Description: (§1) Using this approach, we tested several other structurally related compounds to get a first view on the structure-function relationships of TRPC6.
A) The chemical structures of the tested compound is shown. […] Calcium entry was measured using FLIPR^Tetra and data analysed as described in Jörs et al.. The data were calculated from one experiment of at least three experiments performed in quadruplicates per concentration and TRP channel.
(§2) Calcium entry was measured using FLIPR^Tetra and data analysed as described in Jörs et al.. The data were calculated from one experiment of at least three experiments performed in quadruplicates per concentration and TRP channel.

Drosophila TRPγ = target: T2, Drosophila TRPγ (Drosophila melanogaster, UniProt Q9VJJ7); assay: FLIPR calcium entry in TRPγ-expressing cells stimulated by eicosatetraynoic acid; assay type: cell-based; settings: fluo-4-loaded cells, eicosatetraynoic acid (20 µM), FLIPR Tetra; read-out: IC50 to block Drosophila TRPγ
T2 construct: expressed in transfected cells
T2 sequence (Q9VJJ7 1-1128): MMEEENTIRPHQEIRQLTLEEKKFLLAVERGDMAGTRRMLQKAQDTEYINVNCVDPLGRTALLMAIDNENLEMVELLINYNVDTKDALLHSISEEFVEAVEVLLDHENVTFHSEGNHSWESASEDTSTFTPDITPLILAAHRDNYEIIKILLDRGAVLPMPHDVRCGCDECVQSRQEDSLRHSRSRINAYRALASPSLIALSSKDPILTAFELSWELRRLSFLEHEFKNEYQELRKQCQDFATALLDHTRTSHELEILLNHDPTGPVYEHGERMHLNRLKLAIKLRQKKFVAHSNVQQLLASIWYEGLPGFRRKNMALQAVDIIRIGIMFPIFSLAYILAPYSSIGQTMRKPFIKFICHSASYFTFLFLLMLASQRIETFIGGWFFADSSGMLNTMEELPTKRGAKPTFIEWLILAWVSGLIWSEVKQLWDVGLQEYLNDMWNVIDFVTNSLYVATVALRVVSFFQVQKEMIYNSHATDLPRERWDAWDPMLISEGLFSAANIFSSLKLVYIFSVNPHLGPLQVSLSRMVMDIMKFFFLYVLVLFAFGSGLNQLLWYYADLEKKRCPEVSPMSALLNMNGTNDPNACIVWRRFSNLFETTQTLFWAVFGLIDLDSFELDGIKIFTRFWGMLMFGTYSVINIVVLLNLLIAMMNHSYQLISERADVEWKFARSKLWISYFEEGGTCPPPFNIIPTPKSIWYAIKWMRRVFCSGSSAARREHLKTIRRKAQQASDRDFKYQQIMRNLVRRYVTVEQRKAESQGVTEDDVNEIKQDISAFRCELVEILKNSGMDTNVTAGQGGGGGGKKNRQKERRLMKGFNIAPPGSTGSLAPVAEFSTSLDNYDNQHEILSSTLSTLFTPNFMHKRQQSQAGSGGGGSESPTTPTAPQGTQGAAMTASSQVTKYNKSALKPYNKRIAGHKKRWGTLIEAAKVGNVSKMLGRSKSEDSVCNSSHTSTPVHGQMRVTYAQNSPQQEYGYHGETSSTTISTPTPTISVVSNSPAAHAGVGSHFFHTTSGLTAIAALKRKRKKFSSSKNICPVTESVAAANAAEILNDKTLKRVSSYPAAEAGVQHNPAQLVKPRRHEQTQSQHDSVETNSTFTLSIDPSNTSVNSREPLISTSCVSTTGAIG
Description: as §1, §2

TRPV4 = target: T3, TRPV4 (Homo sapiens, UniProt Q9HBA0); assay: FLIPR calcium entry in TRPV4-expressing cells stimulated by 4α-phorbol-didecanoate; assay type: cell-based; settings: fluo-4-loaded cells, 4α-phorbol-didecanoate (5 µM), FLIPR Tetra; read-out: IC50 to block TRPV4
T3 construct: expressed in transfected cells
Description: as §1, §2

TRPM3 = target: T4, TRPM3 (Homo sapiens, UniProt Q9HCF6); assay: FLIPR calcium entry in TRPM3-expressing cells stimulated by pregnenolone sulphate; assay type: cell-based; settings: fluo-4-loaded cells, pregnenolone sulphate (35 µM), FLIPR Tetra; read-out: IC50 to block TRPM3
T4 construct: expressed in transfected cells
Description: as §1, §2

TRPC6 [5] = target: T1, TRPC6; parameters: method as in PMID 9368034, PMID 10970899; settings: read-out: concentration needed to block TRPC6; cited from earlier work
TRPC3 [6] = system: TRPC3; parameters: method as in PMID 9368034, PMID 10970899; settings: read-out: half-maximal concentration necessary for TRPC3 inhibition; cited from earlier work

T3 sequence (Q9HBA0 whole entry, species assumed): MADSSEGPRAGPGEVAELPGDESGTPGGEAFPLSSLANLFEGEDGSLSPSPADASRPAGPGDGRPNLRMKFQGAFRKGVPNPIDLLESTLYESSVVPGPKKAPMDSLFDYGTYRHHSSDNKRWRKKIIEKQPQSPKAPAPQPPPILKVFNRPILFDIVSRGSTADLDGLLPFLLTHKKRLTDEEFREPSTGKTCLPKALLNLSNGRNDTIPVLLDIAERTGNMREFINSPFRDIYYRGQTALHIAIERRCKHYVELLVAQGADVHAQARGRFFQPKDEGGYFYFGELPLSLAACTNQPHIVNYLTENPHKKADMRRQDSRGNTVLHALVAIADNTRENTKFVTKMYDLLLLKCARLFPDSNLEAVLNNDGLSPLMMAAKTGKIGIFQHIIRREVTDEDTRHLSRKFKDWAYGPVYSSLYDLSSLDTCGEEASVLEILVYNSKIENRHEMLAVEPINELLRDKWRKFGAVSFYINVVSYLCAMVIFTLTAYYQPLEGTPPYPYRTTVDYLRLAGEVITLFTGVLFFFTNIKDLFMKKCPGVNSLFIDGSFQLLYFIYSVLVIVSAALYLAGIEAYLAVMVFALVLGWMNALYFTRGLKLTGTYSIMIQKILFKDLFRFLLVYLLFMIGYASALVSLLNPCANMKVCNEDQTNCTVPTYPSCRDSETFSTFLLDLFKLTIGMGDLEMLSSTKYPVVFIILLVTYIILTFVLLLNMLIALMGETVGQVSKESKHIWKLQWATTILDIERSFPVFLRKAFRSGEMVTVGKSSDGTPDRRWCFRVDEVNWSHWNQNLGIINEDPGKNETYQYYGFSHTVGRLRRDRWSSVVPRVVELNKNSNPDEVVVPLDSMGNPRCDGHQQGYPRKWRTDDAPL
T4 sequence (Q9HCF6 whole entry, species assumed): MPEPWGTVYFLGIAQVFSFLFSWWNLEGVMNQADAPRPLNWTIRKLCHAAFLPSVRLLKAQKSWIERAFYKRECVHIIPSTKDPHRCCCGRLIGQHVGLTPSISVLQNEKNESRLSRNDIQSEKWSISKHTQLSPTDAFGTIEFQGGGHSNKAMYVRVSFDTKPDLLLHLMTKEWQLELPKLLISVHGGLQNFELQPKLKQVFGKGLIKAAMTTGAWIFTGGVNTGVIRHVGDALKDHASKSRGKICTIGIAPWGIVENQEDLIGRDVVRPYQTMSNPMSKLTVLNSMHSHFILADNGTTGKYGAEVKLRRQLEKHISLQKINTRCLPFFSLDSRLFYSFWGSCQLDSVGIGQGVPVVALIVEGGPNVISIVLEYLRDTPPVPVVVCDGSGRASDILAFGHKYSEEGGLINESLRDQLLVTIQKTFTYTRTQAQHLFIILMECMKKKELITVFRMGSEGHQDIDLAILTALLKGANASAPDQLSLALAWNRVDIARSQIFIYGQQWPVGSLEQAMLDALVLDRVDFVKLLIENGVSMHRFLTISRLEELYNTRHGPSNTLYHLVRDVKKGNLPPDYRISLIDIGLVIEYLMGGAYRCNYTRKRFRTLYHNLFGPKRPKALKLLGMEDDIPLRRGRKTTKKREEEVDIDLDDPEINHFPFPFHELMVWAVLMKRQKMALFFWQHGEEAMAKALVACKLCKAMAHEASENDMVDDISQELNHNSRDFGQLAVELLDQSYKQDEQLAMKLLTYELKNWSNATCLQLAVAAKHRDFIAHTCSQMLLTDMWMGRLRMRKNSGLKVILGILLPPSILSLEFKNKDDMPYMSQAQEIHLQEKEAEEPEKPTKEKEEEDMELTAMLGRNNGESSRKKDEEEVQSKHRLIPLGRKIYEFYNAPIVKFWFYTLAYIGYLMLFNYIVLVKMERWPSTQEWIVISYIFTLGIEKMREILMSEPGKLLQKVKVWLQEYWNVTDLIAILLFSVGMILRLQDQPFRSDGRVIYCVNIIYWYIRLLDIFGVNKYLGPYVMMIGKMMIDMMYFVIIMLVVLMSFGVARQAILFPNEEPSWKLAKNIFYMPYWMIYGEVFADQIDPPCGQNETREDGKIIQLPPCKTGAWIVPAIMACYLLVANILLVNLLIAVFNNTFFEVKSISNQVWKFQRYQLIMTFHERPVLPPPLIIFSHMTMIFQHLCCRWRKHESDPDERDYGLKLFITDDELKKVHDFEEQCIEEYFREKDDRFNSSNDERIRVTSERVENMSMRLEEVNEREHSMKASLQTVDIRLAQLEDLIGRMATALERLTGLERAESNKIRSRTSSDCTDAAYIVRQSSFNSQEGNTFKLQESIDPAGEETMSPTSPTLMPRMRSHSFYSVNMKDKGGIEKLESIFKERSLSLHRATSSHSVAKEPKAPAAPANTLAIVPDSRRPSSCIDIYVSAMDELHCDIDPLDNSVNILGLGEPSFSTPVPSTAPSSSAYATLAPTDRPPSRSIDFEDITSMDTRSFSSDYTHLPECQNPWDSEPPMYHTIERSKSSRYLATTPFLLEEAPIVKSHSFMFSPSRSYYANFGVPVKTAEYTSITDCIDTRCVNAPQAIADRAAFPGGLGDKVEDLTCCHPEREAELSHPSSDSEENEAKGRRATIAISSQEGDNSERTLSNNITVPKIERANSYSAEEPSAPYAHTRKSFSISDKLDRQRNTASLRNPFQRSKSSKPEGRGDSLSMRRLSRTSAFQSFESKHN

For COc1ccc(CCCOC(Cn2ccnc2)c2ccc(OC)cc2)cc1.Cl (stereo not drawn) [SKF-96365, 1-{β[3-(4-methoxyphenyl)propoxy]-4-methoxyphenethyl}-1H-imidazole hydrochloride], the “block of heterologously expressed TRPC6” value (TRPC6 [1]) is given as “complete block”, the IC50 [2] is given as roughly 10 µM and the “block of endogenously expressed TRPC3” value (TRPC3 [3]) is given as “effective in blocking”.
In the case of NCCCCCCNS(=O)(=O)c1ccc2c(Cl)cccc2c1 [W-7 isomer, N-(6-Aminohexyl)-5-chloro-2-naphthalenesulfonamide], the IC50 (TRPC6 [4]) is reported as 35 µM.
O=S(=O)(c1cccc2c(Cl)cccc12)N1CCCNCC1 [ML-9, 1-(5-Chloronaphthalene-1-sulfonyl)-1H-hexahydro-1,4-diazepine] showed an IC50 (TRPC6 [4]) of 36 µM.
Molecule NCCCCCCNS(=O)(=O)c1cccc2ccccc12 [W-5, N-(6-Aminohexyl)-1-naphthalenesulfonamide] has an IC50 (TRPC6 [4]) of 20 µM.
Molecule NCCCCCCCCCCNS(=O)(=O)c1cccc2c(Cl)cccc12 [W-7 decyl] has an IC50 (TRPC6 [4]) of 29 µM.
For NCCCCCCCCNS(=O)(=O)c1cccc2c(I)cccc12 [J-8, (N-8-Aminooctyl)-5-iodo-1-naphthalenesulfonamide], the IC50 (TRPC6 [4]) was 85 µM.
With NCCCCCCNS(=O)(=O)c1cccc2c(Cl)cccc12 [W-7, N-(6-Aminohexyl)-5-chloro-1-naphthalenesulfonamide] the IC50 (Drosophila TRPγ) was 5 µM, the IC50 (TRPV4) was 65 µM and the IC50 (TRPM3) was 15 µM.
In the case of [Cl][La]([Cl])[Cl] [lanthanum chloride], the IC50 (TRPC6 [5]) is given as greater than 50 µM and the IC50 (TRPC3 [6]) is given as 4 µM.

Source: paper PMC3267170, “Pharmacological Modulation of Diacylglycerol-Sensitive TRPC3/6/7 Channels” (Current Pharmaceutical Biotechnology, 2011)
